What was measured:
[1] = system: ACAT; experiment: In vitro assay for the inhibition of ACAT activity; format: biochemical, rat; conditions: hepatic microsomes of cholesterol/cholic acid fed male CD rats, [14C]oleoyl-CoA incorporation
Description: (i) In vitro assay for the inhibition of ACAT activity
ACAT activity was determined as described By Ross et al by the incorporation of [^14 C]oleoyl-CoA into cholesterol [^14 C]oleate using hepatic microsomes as the source of both ACAT and cholesterol. Microsomes were prepared from the livers of male CD rats fed a 0.4% cholesterol/0.2% cholic acid diet 3.5 days before sacrifice. Various concentrations of a test compound were preincubated with a 0.5 mg/ml microsomal suspension and after 15 minutes a 50 μg aliquot was removed and incubated with 25 μM of [^14 C]-enriched oleoyl-CoA for 4 minutes. The reaction was terminated by the addition of 1 ml of ethanol and 4 ml of hexane. After shaking, the hexane layer was removed and evaporated to dryness. The hexane extract was then reconstituted in 150 μl of HPLC solvent and injected on to a B&J OD5 Reverse Phase C18 column using an isocratic mobile phase of acetonitrile: isopropanol:heptane (50:40:10) in 0.5% acetic acid at a flow rate of 1.0 ml/min. The product of the reaction, [^14 C]oleoyl cholesterol, was measured using a Flow One radiometric detector. The ACAT IC50 value for each compound was determined from a plot of % inhibition from control vs inhibitor concentration.

[2] = system: cholesterol-cholic acid fed rats; experiment: Determination of hypolipdemic activity in cholesterol-cholic acid fed rats; format: in vivo, rat; conditions: serum on fourth day
Description: (ii) Determination of hypolipdemic activity in cholesterol-cholic acid fed rats
Male Sprague-Dawley rats (CD, Charles River) each weighing 200-300 g were used. Hypercholesterolemia was induced in the rats by administration of a diet enriched to 0.4% cholesterol, 0.2% cholic acid. Prior to the adminstration of the diet, blood samples were collected under halothane anesthesia by cardiac puncture to determine baseline lipid levels. The blood was allowed to clot and serum was obtained for the analysis of total cholesterol, dextran-precipitable lipoproteins cholesterol (VLDL+LDL) and total triglycerides. The rats were divided into groups so that each group had similar average baseline serum lipid levels. Five days after the initial blood sampling, administration of each test compound and the cholesterol-cholic acid-enriched diet was begun. Compounds to be tested by gavage were administered b.i.d. in either 0.5% methyl cellulose or 5% sodium bicarbonate a 9:00 a.m. and 3:00 p.m. for three days and at 9:00 a.m. on the fourth day. Compounds administered as part of the diet were dissolved in ethanol and sprayed on to the diet. The ethonol was allowed to evaporate and the diet given to the rats for three days. On the fourth day, blood samples were collected and the final serum lipid levels determined. All blood samplings were taken after a four-hour fast.

Row | IC50 [1] [µM] | Structure (SMILES) | reduced LDL-cholestrol by ([2]; dose of 25 mg/kg) [%] | reduced LDL-cholestrol by ([2]; dose of 50 mg/kg) [%] | reduced LDL-cholestrol by ([2]; dose of 5 mg/kg) | reduced LDL-cholestrol by ([2]; dose of 0.5 mg/kg) [%] | reduced LDL-cholestrol by ([2]; dose of 2 mg/kg) [%]
1 | 4.5 | CCCCCCCN(Cc1ccc(OC(C)(C)C(=O)O)cc1)C(=O)Nc1ccc(OC)cc1OC [Synthetic Example 1, 2-(4-{[3-(2,4-dimethoxyphenyl)-1-heptylureido]methyl}phenoxy)-2-methylpropionic acid] | 55 | 67 |  |  | 
2 | 3.4 | CCCCCCCN(CCc1ccc(OC(C)(C)C(=O)O)cc1)C(=O)Nc1ccc(OC)cc1OC [Synthetic Example 2, 2-(4-{2-[3-(2,4-dimethoxyphenyl)-1-heptylureido]ethyl}phenoxy)-2-methylpropionic acid] | 61 |  | 41-71% |  | 
3 | 7.6 | CCCCCCCN(CCc1ccc(OC(C)(C)C(=O)O)cc1)C(=O)Nc1ccc(F)cc1F [Synthetic Example 3, 2-(4-{2-[3-(2,4-difluorophenyl)-1-heptylureido]ethyl}phenoxy)-2-methypropionic acid] |  |  |  | 90 | 74
